Measurements from ChEMBL document CHEMBL3272252, “A novel prostaglandin endoperoxide mimic, prostaglandin F2alpha acetal” (J Med Chem, 1977).
Values after ≈ are worked out from the molar mass of the structure shown. One block for each compound: values may come before it. Active and inactive are the calls of the source. The calls are words filed in the database; no cut-off is given here.

How the values were obtained:
[1] = Vasocontractile activity in gerbil colon assessed as smooth muscle contractile response relative to PGF2alpha; assay type: functional, Gerbillinae, Muscle tissue
[2] = Vasocontractile activity in rabbit aorta assessed as smooth muscle contractile response relative to PGE2; assay type: functional, Oryctolagus cuniculus, Muscle tissue
Platelet [3] = assay: Induction of irreversible platelet aggregation in human citrated platelet-rich plasma at 100 to 250 ng/ml; assay type: functional
[4] = Retardation factor of the compound using CHCl3-EtOAc-HOAc at ratio of 50:50:1 as solvent system by thin layer chromatography; assay type: physicochemical
[5] = Vasocontractile activity in dog lateral saphenous vein assessed as smooth muscle contractile response relative to PGF2alpha; assay type: functional, Canis lupus familiaris
[6] = (§1) Vasocontractile activity in dog lateral saphenous vein assessed as smooth muscle contractile response; assay type: functional; conditions: Canis lupus familiaris, read-out: ED50 (the source's name)
[7] = Stability of the compound in Krebs solution at pH 8.2 at 4 degC after 1 week; assay type: physicochemical; conditions: buffer, pH 8.2, 168 h
Platelet [8] = assay: Induction of platelet aggregation in human citrated platelet-rich plasma assessed as internal contractile response with granules being squeezed into cell centre surrounded closely by microtubules and contractile microfilaments by transmission electron microscopy; assay type: functional
Canis lupus familiaris = organism: Canis lupus familiaris; assay: as §1; assay type: functional
[9] = Vasocontractile activity in dog lateral saphenous vein assessed as smooth muscle contractile response in presence of PG synthase inhibitor indomethacin; assay type: functional, tissue-based; conditions: Canis lupus familiaris
Gerbillinae = assay: Vasocontractile activity in gerbil colon assessed as smooth muscle contractile response; assay type: functional, tissue-based; conditions: Muscle tissue
Oryctolagus cuniculus = organism: Oryctolagus cuniculus; assay: Vasocontractile activity in rabbit aorta assessed as smooth muscle contractile response; assay type: functional, tissue-based; conditions: Muscle tissue
Platelet [10] = assay: Induction of reversible platelet aggregation in human citrated platelet-rich plasma at 0.7 to 4 ug/ml; assay type: functional
Platelet [11] = assay: Induction of irreversible platelet aggregation in human citrated platelet-rich plasma at 5 to 10 ug/ml; assay type: functional
Platelet [12] = assay: Induction of platelet aggregation in human citrated platelet-rich plasma in presence of 10 ug/ml PG synthase inhibitor indomethacin; assay type: functional

Structure (SMILES): CCCCC[C@@H](/C=C/[C@@H]1[C@@H](C/C=C\CCCC(=O)O)[C@H]2C[C@H]1OO2)OO
Activity [1]: 1.5% | Activity [2]: 80% | Activity (Platelet [3]): Active

Rf [4]: 0.49
Structure (SMILES): CCCCC[C@H](O)/C=C/[C@@H]1[C@@H](C/C=C\CCCC(=O)O)[C@@H]2C[C@H]1OC(C)O2 (mixture of isomers)

EC50 [6]: 5.8 ng/mL (≈ 0.0152 µM) | Stability [7]: Stable | Rf [4]: 0.53
Structure (SMILES): CCCCC[C@H](O)/C=C/[C@@H]1[C@@H](C/C=C\CCCC(=O)O)[C@@H]2C[C@H]1OC(C)O2 (stereo in doubt; 1a) [listing 1 of 2 here]
Activity [1]: 0.12% | Activity [2]: 19% | Activity [5]: 32%

Structure (SMILES): CCCCC[C@H](O)/C=C/[C@@H]1[C@@H](C/C=C\CCCC(=O)O)[C@@H]2C[C@H]1OC(C)O2 (stereo in doubt; 1a) [listing 2 of 2 here]
Activity (Platelet [8]): Active | Activity (Canis lupus familiaris): Dose-dependent effect | Activity [9]: Active | Activity (Gerbillinae): Dose-dependent effect | Activity (Oryctolagus cuniculus): Dose-dependent effect | Activity (Platelet [10]): Active | Activity (Platelet [11]): Active | Activity (Platelet [12]): Active
